From patent publication US9440988B2, “Regulators of the hedgehog pathway, compositions and uses related thereto” (John Hopkins University School of Medicine, priority 1008, dated 2016)

Legend:
[1] = system: P2A6 fibrosarcoma cells derived from Ptc−/− embryonic fibroblasts; assay: Subcutaneous P2A6 fibrosarcoma tumors in female nude mice; type: in vivo, mouse; conditions: for differentiation status of tumors: compared with the tomatidine-treated control, FIG. 7; for Ki-67 proliferation rate: tumors after four days of treatment, blinded pathologist
Description: Female nude mice were injected subcutaneously with 5 million P2A6 fibrosarcoma cells derived from Ptc−/− embryonic fibroblasts. Three weeks after injection, each mouse had developed a discrete subcutaneous tumor. Each tumor was measured and treatments were initiated on the same day. […] The mice were killed, and tumors were measured and dissected out for histopathologic analysis. Tumor volumes were calculated as the product of length x width. The samples were paraformaldehyde-fixed and paraffin-embedded, and slides were cut for hematoxylin and eosin staining and for immunohistochemistry with polyclonal antibodies against the proliferation marker Ki-67 (Novacastra NCL-Ki67p; assay performed according to manufacturer's directions).

[2] = system: activated Smo (SmoA1); assay: Gli-luciferase reporter activity in cells expressing activated Smo (SmoA1-LIGHT); type: cell-based, mouse
Text: FIG. 2 relates to a sensitive assay for Shh signaling in NIH-3T3 cells. (A) Purification of cholesterol- and palmitate-modified mouse Sonic hedgehog signaling domain ShhNp. Detergent-insoluble proteolipid complexes were isolated from 293 cells expressing full-length Shh (M. K. Cooper, J. A. Porter, K. E. Young, P. A. Beachy, Science 280, 1603 (1998)), and ShhNp was purified to apparent homogeneity by immunoaffinity chromatography. […] We therefore used the detergent insolubility of cholesterol-modified ShhN and affinity chromatography to purify the processed ShhN protein (ShhNp) from a human 293 cell line engineered to express the full length mouse Shh construct. Detergent-insoluble complexes (DIGs) were isolated as described by Brown and Rose (1992), with the following modifications. Cells from a 150 mm dish were lysed and collected in 2 mL of lysis solution (10 mM NaHPO4, pH 6.5, 150 mM NaCl, 0.5 mM PMSF, 1% Triton X-100, 2 μg/ml Pepstatin A, 10 μg/ml leupeptin, 5 μg/ml aprotinin, 2 μg/ml E64) at 4° C. […] Fold induction of the reporter (% of maximum is relative to equally dense Shh-LIGHT control culture) and cell densities (% of maximum Renilla luciferase activity) were measured at the end of the experiment. […]

[3] = system: Sonic hedgehog signaling; assay: Clonal NIH-3T3 line with stably integrated Shh-responsive luciferase reporter (Shh-LIGHT/Shh-LIGHT2), inhibition of Sonic hedgehog induction; type: cell-based, mouse
Text: FIG. 2 relates to a sensitive assay for Shh signaling in NIH-3T3 cells. (A) Purification of cholesterol- and palmitate-modified mouse Sonic hedgehog signaling domain ShhNp. Detergent-insoluble proteolipid complexes were isolated from 293 cells expressing full-length Shh (M. K. Cooper, J. A. Porter, K. E. Young, P. A. Beachy, Science 280, 1603 (1998)), and ShhNp was purified to apparent homogeneity by immunoaffinity chromatography. […] We therefore used the detergent insolubility of cholesterol-modified ShhN and affinity chromatography to purify the processed ShhN protein (ShhNp) from a human 293 cell line engineered to express the full length mouse Shh construct. Detergent-insoluble complexes (DIGs) were isolated as described by Brown and Rose (1992), with the following modifications. Cells from a 150 mm dish were lysed and collected in 2 mL of lysis solution (10 mM NaHPO4, pH 6.5, 150 mM NaCl, 0.5 mM PMSF, 1% Triton X-100, 2 μg/ml Pepstatin A, 10 μg/ml leupeptin, 5 μg/ml aprotinin, 2 μg/ml E64) at 4° C. […] Low-density, flocculent material was collected (from original position of 18.125% step), diluted 5-fold in 10 mM NaHPO4, pH 6.5, 150 mM NaCl and harvested by centrifugation at 20,000×g for 15 min (all at 4° C.). […] Mass standards migrated as indicated. […] NIH-3T3 cells cotransfected with Gli-luc reporter and TK promoter-driven Renilla luciferase control were treated with the indicated concentrations of ShhNp for 2 days. Confluent cultures of NIH-3T3 cells were plated at 1:6 dilution to 24 or 96-well plates. On the following day, the cells were transfected with renilla luciferase (pRL-TK or pRL-SV40; Clontech) or β-galactosidase transfection control (10% w/w DNA), Gli-Luc reporter (40%) and the constructs indicated (50%) using Fugene 6 (Roche) transfection reagent (250 ng (24 well plate) or 100 ng (96 well plate) DNA/well, 3:1 ratio (v/w) of reagent to DNA). […] Firefly and Renilla luciferase and β-galactosidase activities were assayed from the cell lysates by luminometry using dual luciferase (Promega) and Galacto-Light (Tropix) kits, respectively. Luciferase activities are normalized relative to control; a representative experiment is shown. […] Error bars indicate one standard deviation. […] Cultures of Shh-LIGHT (open boxes) or SmoA1-LIGHT (filled diamonds) cells were plated to 96-well plates in a series of twofold dilutions. The NIH-3T3 cell clone Shh-LIGHT and Shh-LIGHT2 stably incorporating the Gli-luc reporter and TK-renilla vectors were established by cotransfection with a vector encoding G418 resistance (pSV-Neo), followed by selection with G418 and cell cloning. Subsequently, a clonal subline of Shh-LIGHT expressing activated Smo (SmoA1-LIGHT) was established using an expression vector that allows hygromycin selection (pcDNA3.1+ hygro; Invitrogen). […] The Shh-LIGHT cells were treated with 4 nM ShhNp, and Gli-luciferase reporter activity was assayed after 24 h. Fold induction of the reporter (% of maximum is relative to equally dense Shh-LIGHT control culture) and cell densities (% of maximum Renilla luciferase activity) were measured at the end of the experiment. Error bars indicate one standard deviation (quadruplicate wells).
(§1) Relative reporter activity is normalized to maximum. […] Error bars in A and B indicate one standard deviation.

[4] = system: p2PTC−/− cells; conditions: even at the highest doses used, 2 d
Text: as §1

[5] = system: Shh pathway activity in Ptc1−/− cells
Text: Since β-galactosidase is expressed from the Ptc1 locus, its expression reflects the activity of the Shh pathway. A representative experiment is shown. […] Cultures of NIH-3T3 cells were transfected (in triplicate) with Gli-luciferase reporter, TK-Renilla luciferase control vector and Smo or SmoA1 expression vectors. Smo DNA was used at 50% w/w, and SmoA1 at 50%, 5%, and 0.5% w/w. […] Error bars indicate one standard deviation. The leftmost four bars, shown for comparison, are as in FIG. 2C. […] NIH-3T3 cells were transfected with Gli-luc reporter, TK-Renilla, Ptc1CTD and SmoA1 expression vectors (Ptc to Smo DNA ratio=9). […] A representative experiment is shown. […] NIH-3T3 cells were cotransfected with Gli-luc reporter, β-galactosidase transfection control, and a control vector or an expression vector encoding the indicated Smo-Renilla luciferase fusion protein. In the representative experiment shown, Shh pathway activity and Smo protein levels were measured as firefly and Renilla luciferase activities relative to β-galactosidase, respectively.
as §1
Mice lacking function of Ptc1 display widespread activation of targets of Shh signaling, including of the Ptc1 gene itself (L. V. Goodrich, L. Milenkovic, K. M. Higgins, M. P. Scott, Science 277, 1109 (1997)). As β-galactosidase is expressed under the control of the Ptc1 promoter in these cells, β-galactosidase expression can be used to assay the state of Shh pathway activity (FIG. 3A).

[6] = system: NIH-3T3 cells; conditions: data not shown
[7] = system: Hedgehog signaling; assay: Hedgehog signaling assay in Drosophila c1-8 cells; type: cell-based; conditions: not shown
Text: Cellular responses to the Hh signal are controlled by two multi-pass transmembrane proteins, Smo and Ptc1, predicted to have seven and twelve transmembrane spans, respectively. Smo is related to the Frizzled family of Wnt receptors and more distantly to the secretin family of G protein-coupled receptors (M. R. Barnes, D. M. Duckworth, L. J. Beeley, Trends Pharmacol Sci 19, 399 (1998)).

[8] = system: Shh pathway; assay: Gli-luciferase reporter assay for Shh signaling in transiently transfected NIH-3T3 cells; type: cell-based, mouse; conditions: ShhNp-treated NIH-3T3 cells (FIG. 2C: ShhNp 4 nM, cyclopamine 5 μM, 2 d)
[9] = nude mice, once daily intraperitoneal, four days, one mouse per treatment

Compound: 3-keto, N-aminoethyl aminocaproyl dihydrocinnamoyl cyclopamine [KAAD cyclopamine]
- differentiation status of tumors [1]: greater degree of differentiation
- decrease of tumor size [1, 9]: 19%
- Ki-67 proliferation rate [1]: 12%
- blocking of pathway activation by tumor-derived / constitutively activated Smo [2]: can block
- concentration suppressing SmoA1-induced reporter activity relative to that required for suppression of ShhNp signaling ([2]; higher, FIG. 4A): approximately 10 fold
- potency in suppression of ShhNp-induced pathway activity relative to cyclopamine [3]: 10-20 fold
- Significant toxicity (microscopically visible cell death, or decrease in Cell Titer reading) [4]: not observed
- blocking/suppression of pathway activity in cells lacking Ptc1 function [5]: can block
- potency relative to cyclopamine in p2PTC−/− cells ([5]; FIG. 4B, 2 d): higher potency
- minimum normalized β-galactosidase activity ([5]; p2PTC−/− cells, 2 d, normalized to cell mass, set to 0): 191
- Maximum normalized β-galactosidase activity ([5]; p2PTC−/− cells, 2 d, normalized to cell mass, set to 1): 1103

Compound: CC1=C2C[C@H]3[C@@H](CC=C4C[C@@H](O)CC[C@@]43C)[C@@H]2CC[C@]12O[C@@H]1C[C@H](C)CN[C@H]1[C@H]2C [Compound 1, cyclopamine]
- concentration range in which toxic effects emerge [6]: 10 to 40 µM
- differentiation status of tumors [1]: greater degree of differentiation
- decrease of tumor size [1, 9]: 0.14%
- Ki-67 proliferation rate [1]: 16%
- sensitivity of Hedgehog signaling assay to the substance [7]: resistant
- Significant toxicity (microscopically visible cell death, or decrease in Cell Titer reading) [4]: not observed
- β-galactosidase expression [5]: significantly suppressed

Compound: C[C@H]1CC[C@]2(NC1)O[C@H]1C[C@H]3[C@@H]4CC[C@H]5C[C@@H](O)CC[C@]5(C)[C@H]4CC[C@]3(C)[C@H]1[C@@H]2C [tomatidine]
- tumor growth over the treatment period [1, 9]: 17%
- Ki-67 proliferation rate [1]: 30%

Compound: forskolin
- induction of reporter by ShhNp [8]: prevented induction
